Source: patent US5057146A (priority 1986, dated 1991)
Where two headings read alike, the source gives them in different places.

Experiments:
Venturia inaequalis = assay: foliar fungal disease control, Venturia inaequalis on apple; type: in vivo
Method: (§1) The compounds were tested against a variety of foliar fungal diseases of plants. The technique employed was as follows.
(§2) The plants were grown in John Innes Potting Compost (No 1 or 2) in 4 cm diameter minipots. The test compounds were formulated either by bead milling with aqueous Dispersol T or as a solution in acetone or acetone/ethanol which was diluted to the required concentration immediately before use. […] The sprays were applied to maximum retention and the root drenches to a final concentration equivalent to approximately 40 ppm a.i./dry soil. Tween 20, to give a final concentration of 0.05%, was added when the sprays were applied to cereals.
(§3) For most of the tests the compound was applied to the soil (roots) and to the foliage (by spraying) one or two days before the plant was inoculated with the disease. An exception was the test on Erysiphe graminis in which the plants were inoculated 24 hours before treatment. Foliar pathogens were applied by spray as spore suspensions onto the leaves of test plants. After inoculation, the plants were put into an appropriate environment to allow infection to proceed and then incubated until the disease was ready for assessment. The period between inoculation and assessment varied from four to fourteen days according to the disease and environment.
(§4) The disease control was recorded by the following grading: […]

Cercospora arachidicola = assay: foliar fungal disease control, Cercospora arachidicola on peanut; type: in vivo
Method: as §1, §2, §3, §4

Plasmopara viticola = assay: foliar fungal disease control, Plasmopara viticola on vine; type: in vivo
Method: as §1, §2, §3, §4

Erysiphe graminis hordei = assay: foliar fungal disease control, Erysiphe graminis hordei on barley; type: in vivo; settings: inoculated 24 hours before treatment
Method: as §1, §2, §3, §4

Puccinia recondita = assay: foliar fungal disease control, Puccinia recondita on wheat; type: in vivo
Method: as §1, §2, §3, §4

Pyricularia oryzae = type: in vivo, Pyricularia oryzae (rice)
Phytophthora infestans = type: in vivo, Phytophthora infestans (tomato)
[1] = 100 ppm foliar spray plus root drench approx. 40 ppm a.i./dry soil

| SMILES | disease control grading, Venturia inaequalis (apple) (Venturia inaequalis; [1]) | disease control grading, Cercospora arachidicola (peanut) (Cercospora arachidicola; [1]) | disease control grading, Plasmopara viticola (vine) (Plasmopara viticola; [1]) | disease control grading, Erysiphe graminis hordei (barley) (Erysiphe graminis hordei; [1]) | disease control grading, Puccinia recondita (wheat) (Puccinia recondita; [1]) | disease control grading, Pyricularia oryzae (rice) (Pyricularia oryzae; [1]) | disease control grading, Phytophthora infestans (tomato) (Phytophthora infestans; [1]) | disease control grading, Venturia inaequalis (apple) (Venturia inaequalis; 25 ppm foliar spray only) | disease control grading, Cercospora arachidicola (peanut) (Cercospora arachidicola; 25 ppm foliar spray only) | disease control grading, Plasmopara viticola (vine) (Plasmopara viticola; 25 ppm foliar spray only) | disease control grading, Erysiphe graminis hordei (barley) (Erysiphe graminis hordei; 25 ppm foliar spray only) | disease control grading, Puccinia recondita (wheat) (Puccinia recondita; 25 ppm foliar spray only) | disease control grading, Pyricularia oryzae (rice) (Pyricularia oryzae; 25 ppm foliar spray only) | disease control grading, Phytophthora infestans (tomato) (Phytophthora infestans; 25 ppm foliar spray only) |
| --- | --- | --- | --- | --- | --- | --- | --- | --- | --- | --- | --- | --- | --- | --- |
| CO/C=C(/C(=O)OC)c1ccccc1Oc1nc(F)cc(F)n1 [Compound 137 (Table I)] | 4 | 0 (60-100% of disease on untreated plants) | 0 (60-100% of disease on untreated plants) | 0 (60-100% of disease on untreated plants) | 2 (6-25% of disease on untreated plants) | 0 (60-100% of disease on untreated plants) | 0 (60-100% of disease on untreated plants) | – | – | – | – | – | – | – |
| CO/C=C(/C(=O)OC)c1ccccc1S(=O)(=O)c1ccc(Br)cn1 [Compound 2 (Table III), (E)-meth-yl 2-(2'-(5"-bromopyridin-2"-ylsulphonyl)phenyl]-3-methoxyacrylate] | 3 (trace-5% of disease on untreated plants) | 0 (60-100% of disease on untreated plants) | 0 (60-100% of disease on untreated plants) | 0 (60-100% of disease on untreated plants) | 3 (trace-5% of disease on untreated plants) | 0 (60-100% of disease on untreated plants) | 0 (60-100% of disease on untreated plants) | – | – | – | – | – | – | – |
| CO/C=C(/C(=O)OC)c1ccccc1Oc1ncc(C(F)(F)F)cc1[N+](=O)[O-] [Compound 129 (Table I)] | 4 | 0 (60-100% of disease on untreated plants) | 0 (60-100% of disease on untreated plants) | 4 | 0 (60-100% of disease on untreated plants) | 0 (60-100% of disease on untreated plants) | 0 (60-100% of disease on untreated plants) | – | – | – | – | – | – | – |
| CO/C=C(/C(=O)OC)c1ccccc1Oc1nccc(Cl)n1 [Compound 61 (Table I), (E)-methyl 2-[2'-(4"-chloropyrimidin-2"-yloxy)phenyl]-3-methoxyacrylate] | 4 | 4 | 1 (26-59% of disease on untreated plants) | 4 | 3 (trace-5% of disease on untreated plants) | 0 (60-100% of disease on untreated plants) | 0 (60-100% of disease on untreated plants) | – | – | – | – | – | – | – |
| CO/C=C(/C(=O)OC)c1ccccc1Oc1cc(Cl)nc(Cl)n1 [Compound 140 (Table I)] | 0 (60-100% of disease on untreated plants) | 0 (60-100% of disease on untreated plants) | 4 | 0 (60-100% of disease on untreated plants) | 2 (6-25% of disease on untreated plants) | 0 (60-100% of disease on untreated plants) | 0 (60-100% of disease on untreated plants) | – | – | – | – | – | – | – |
| CO/C=C(/C(=O)OC)c1ccccc1Oc1ccc(C)cn1 [Compound 16 (Table I)] | 4 | 4 | 4 | 4 | 2 (6-25% of disease on untreated plants) | 4 | 4 | – | – | – | – | – | – | – |
| CO/C=C(/C(=O)OC)c1ccccc1[S+]([O-])c1ccc(Br)cn1 (centres unmarked) [Compound 1 (Table III), (E)--methyl 2-(2'-(5"-bromopyridin-2"-ylsulphinyl)phenyl]-3-methoxyacrylate] | – | – | – | – | – | – | – | 3 (trace-5% of disease on untreated plants) | 0 (60-100% of disease on untreated plants) | 0 (60-100% of disease on untreated plants) | 0 (60-100% of disease on untreated plants) | 0 (60-100% of disease on untreated plants) | 0 (60-100% of disease on untreated plants) | 0 (60-100% of disease on untreated plants) |
| CO/C=C(/C(=O)OC)c1ccccc1Oc1ccc(N)cn1 [Compound 131 (Table I)] | 0 (60-100% of disease on untreated plants) | 0 (60-100% of disease on untreated plants) | 0 (60-100% of disease on untreated plants) | 0 (60-100% of disease on untreated plants) | 3 (trace-5% of disease on untreated plants) | 0 (60-100% of disease on untreated plants) | 0 (60-100% of disease on untreated plants) | – | – | – | – | – | – | – |
| CO/C=C(/C(=O)OC)c1ccccc1Oc1nc(C)cc(Cl)n1 [Compound 166 (Table I)] | 4 | 4 | 3 (trace-5% of disease on untreated plants) | 4 | 4 | 1 (26-59% of disease on untreated plants) | 3 (trace-5% of disease on untreated plants) | – | – | – | – | – | – | – |
| CO/C=C(/C(=O)OC)c1ccccc1Oc1cc(F)nc(F)n1 [Compound 138 (Table I)] | 3 (trace-5% of disease on untreated plants) | 0 (60-100% of disease on untreated plants) | 4 | 0 (60-100% of disease on untreated plants) | 4 | 0 (60-100% of disease on untreated plants) | 0 (60-100% of disease on untreated plants) | – | – | – | – | – | – | – |
| CO/C=C(/C(=O)OC)c1ccccc1Oc1ccc(NC=O)cn1 [Compound 130 (Table I)] | 0 (60-100% of disease on untreated plants) | 4 | 0 (60-100% of disease on untreated plants) | 0 (60-100% of disease on untreated plants) | 3 (trace-5% of disease on untreated plants) | 0 (60-100% of disease on untreated plants) | 0 (60-100% of disease on untreated plants) | – | – | – | – | – | – | – |
| CO/C=C(/C(=O)OC)c1ccccc1Oc1cc(F)nc(Cl)c1 [Compound 167 (Table I)] | 4 | 0 (60-100% of disease on untreated plants) | 4 | 4 | 4 | 3 (trace-5% of disease on untreated plants) | – | – | – | – | – | – | – | – |
| CO/C=C(/C(=O)OC)c1ccccc1Oc1ccc([N+](=O)[O-])cn1 [Compound 133 (Table I), (E)-methyl 2-[2'-(5"-nitropyridin-2"-yloxy)phenyl]-3-methoxyacrylate] | 4 | – | 4 | 4 | 4 | 4 | 0 (60-100% of disease on untreated plants) | – | – | – | – | – | – | – |
